Data as given in PMC5770468, “Cardiac glycoside/aglycones inhibit HIV-1 gene expression by a mechanism requiring MEK1/2-ERK1/2 signaling” (Scientific Reports, 2018).

Assays:
HIV-1 Gag-GFP expression = assay: Recovery of HIV-1 Gag-GFP expression by pathway inhibitors in the presence of CSs, HeLa rtTA-HIV(Gag-GFP) cells; type: cell-based; details: 12 μM U0126; 5.5 μM Selumetinib; 10 μM LY294002; 5 µM KB-R7943; CSs at ~IC80
Procedure: (§1) Figure 5 Effect of modulating NKA expression, [Ca^2+]i, and PI3K-AKT on HIV-1 gene expression. Depletion of the NKA perturbs HIV-1 RNA processing (n ≥ 3, mean, s.e.m.). HeLa rtTA-HIV(Gag-GFP) cells were transduced with two shRNAs (E6/E10) to knockdown expression of the NKA α1 subunit and their effect on HIV-1 gene expression analyzed. After positive selection of cells with puromycin for 24–48 h, HIV-1 expression was Dox induced for 20 h, and cells harvested for analyses. Total mRNA (and protein) was isolated from cells, reverse transcribed, and analyzed by qRT-PCR and data normalized to β-actin (a,c). Results are shown relative to Stuffer (+). (a) Expression levels of NKA α1 mRNAs assayed by qRT-PCR. (b) HIV-1 Gag expression assayed by p24^CA ELISA of cell lysates (40 μg). (c) Accumulation of HIV-1 US (black), SS (white), and MS (gray) mRNAs quantified by qRT-PCR. (d–g) CSs suppress HIV-1 gene expression independent of intracellular Ca^2+ flux/signaling and PI3K-AKT activation. HeLa rtTA-HIV(Gag-GFP) cells were pre-treated with either a chelator of [Ca^2+]i (5 µM BAPTA-AM, [Ca2+]ii), inhibitors of NCX Ca^2+-entry (5 µM KB-R7943, NCXi) or PI3K (10 μM LY294002, PI3Ki), or untreated (DMSO, no pathway inhibitor) for ~2 h prior to treatment with ~IC80s of CSs or DMSO for 4 h, and Dox induced for ~20 h. The pathway used by a CS to inhibit HIV-1 expression was determined by monitoring for recovery of Gag-GFP expression by measuring GFP fluorescence in cell lysates (and initially by plate scans of live/fixed cells, Supplementary Fig. S7a and S8c). (d) Levels of [Ca^2+]i measured by Fura Red AM™ (n ≥ 4, mean, s.e.m.). (e–f) Quantification of Gag-GFP expression by reducing SDS-PAGE in lysates (35 μg) of cells which were pre-treated with/without KB-R7943 (n ≥ 3–4 mean, s.e.m.). […] (g) Graph quantitating Gag expression by p24^CA ELISA in lysates of cells (35 μg) that were pre-treated with/without LY294002 (n ≥ 3, mean, s.e.m.). Statistical comparisons in (a–g) were performed as illustrated (black/gray dashed lines) or described in Methods.
Figure 6 CSs control HIV-1 gene expression through intracellular signaling. HeLa rtTA-HIV(Gag-GFP) cells were pre-treated with/without pathway inhibitor overnight (~15 h) and treated with ~IC80s of CSs. […] Graphs quantifying the activation level (phospho/total protein) of each MAP/MAPK by western blot. […] The signaling pathway(s) used by a CS to inhibit HIV-1 expression was determined by detecting Gag-GFP fluorescence in cell lysates (~35 μg) by reducing SDS-PAGE after pre-treatment of cells with a MEK1/2 (12 μM U0126, white), p38α/β/β2 (15 μM SB203580/p38i, gray), or JNK1/2/3 (1.25 μM SP600125/JNKi, hatched) inhibitor (n ≥ 5–7, 4–8, and 3–7, resp., mean, s.e.m.). […]

[Ca^2+]i = Intracellular Ca2+ by Fura Red AM in HeLa rtTA-HIV(Gag-GFP) cells; type: cell-based, human; details: 5 µM pre-treatment ~2 h
Procedure: as §1, with “(a) Expression levels of NKA α1 mRNAs assayed by qRT-PCR. (b) HIV-1 Gag expression assayed by p24^CA ELISA of cell lysates (40 μg).” left out, “(d–g) CSs suppress HIV-1 gene expression independent of intracellular Ca^2+ flux/signaling and PI3K-AKT activation. HeLa rtTA-HIV(Gag-GFP) cells were pre-treated with either a chelator of [Ca^2+]i (5 µM BAPTA-AM, [Ca2+]ii), inhibitors of NCX Ca^2+-entry (5 µM KB-R7943, NCXi) or PI3K (10 μM LY294002, PI3Ki), or untreated (DMSO, no pathway inhibitor) for ~2 h prior to treatment with ~IC80s of CSs or DMSO for 4 h, and Dox induced for ~20 h.” left out, “Statistical comparisons in (a–g) were performed as illustrated (black/gray dashed lines) or described in Methods.” left out

N=C(N)SCCc1ccc(OCc2ccc([N+](=O)[O-])cc2)cc1 [KB-R7943]
reversal of CS inhibition of HIV-1 Gag-GFP expression by pathway inhibitor pre-treatment (HIV-1 Gag-GFP expression): did not reverse | effect on CS-triggered rise in [Ca^2+]i ([Ca^2+]i): blocked
